pIC50: −log10 of the molar value. Like-named read-outs stand apart in the source and are kept apart here.
Tests used:
PDE2A [1] = target: T1, PDE2A (Rattus norvegicus, UniProt Q01062); assay: In vitro autoradiography on SD rat brain sections; type: binding; settings: co-incubation with 1 μM blocker
T1 construct: we first conducted in vitro autoradiography studies on SD rat brain sections; from tissue; host or cells: male Sprague-Dawley rat brain sections (20 μm)
T1 sequence (Q01062 1-928): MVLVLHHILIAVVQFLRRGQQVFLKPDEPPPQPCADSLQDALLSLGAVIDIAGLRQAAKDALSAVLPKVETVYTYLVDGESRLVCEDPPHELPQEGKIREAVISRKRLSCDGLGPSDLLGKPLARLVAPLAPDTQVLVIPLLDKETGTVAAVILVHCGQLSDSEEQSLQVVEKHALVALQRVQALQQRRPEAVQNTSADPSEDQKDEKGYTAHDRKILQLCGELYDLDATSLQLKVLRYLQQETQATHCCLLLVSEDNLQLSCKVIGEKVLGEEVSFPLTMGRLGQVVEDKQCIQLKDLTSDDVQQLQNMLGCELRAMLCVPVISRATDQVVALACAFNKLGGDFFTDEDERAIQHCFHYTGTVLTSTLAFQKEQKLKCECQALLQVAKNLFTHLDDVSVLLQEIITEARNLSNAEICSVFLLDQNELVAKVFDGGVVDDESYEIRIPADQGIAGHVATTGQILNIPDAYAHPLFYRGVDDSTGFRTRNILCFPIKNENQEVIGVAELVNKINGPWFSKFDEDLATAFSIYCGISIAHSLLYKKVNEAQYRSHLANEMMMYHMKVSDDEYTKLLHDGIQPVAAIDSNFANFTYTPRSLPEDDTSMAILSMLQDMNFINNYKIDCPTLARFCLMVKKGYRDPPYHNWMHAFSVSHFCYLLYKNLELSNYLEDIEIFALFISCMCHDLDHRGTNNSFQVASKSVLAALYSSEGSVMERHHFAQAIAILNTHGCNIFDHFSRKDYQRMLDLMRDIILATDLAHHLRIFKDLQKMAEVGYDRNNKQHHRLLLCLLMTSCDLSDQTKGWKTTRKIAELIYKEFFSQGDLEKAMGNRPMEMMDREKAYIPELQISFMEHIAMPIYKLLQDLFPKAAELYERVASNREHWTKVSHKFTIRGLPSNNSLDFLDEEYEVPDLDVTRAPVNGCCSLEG
Method: After incubation, sections were washed three times (2 min each) with prechilled buffer and briefly rinsed in cold distilled water (10 s). The slices were then air-dried and placed on imaging screens for 60 min before being scanned using a BAS5000 system (Fujifilm).

Unbound brain fraction = type: in vitro ADME
[2] = logD by shake flask method with LC-MS/MS analysis; type: physicochemical
PDE2A [3] = target: PDE2A (Homo sapiens, UniProt O00408); settings: cited from earlier work
[4] = Ex vivo whole-body biodistribution in ddY mice; design: species or system mouse; settings: 60 min postinjection, i.v.
Method: Decay-corrected radioactivity in each organ was measured using a Wizard automatic gamma counter (PerkinElmer, USA).

[5] = Dynamic PET imaging in SD rats; type: in vivo; settings: SD rat, baseline
Method: Dynamic PET imaging was performed using an Inveon PET scanner (Siemens). […] Images were reconstructed using a Hanning filter with a Nyquist cutoff of 0.5 cycles/pixel, with the following framing: 4 × 1 min, 8 × 2 min, and 8 × 5 min. Data analysis was performed using PMOD version 3.4.

[6] = Ex vivo radiometabolite analysis in SD rats; settings: SD rat
Description: Brain and plasma samples were rapidly collected and processed following previously reported procedures.

PDE2A (Homo sapiens, UniProt O00408), sequence (O00408 whole entry): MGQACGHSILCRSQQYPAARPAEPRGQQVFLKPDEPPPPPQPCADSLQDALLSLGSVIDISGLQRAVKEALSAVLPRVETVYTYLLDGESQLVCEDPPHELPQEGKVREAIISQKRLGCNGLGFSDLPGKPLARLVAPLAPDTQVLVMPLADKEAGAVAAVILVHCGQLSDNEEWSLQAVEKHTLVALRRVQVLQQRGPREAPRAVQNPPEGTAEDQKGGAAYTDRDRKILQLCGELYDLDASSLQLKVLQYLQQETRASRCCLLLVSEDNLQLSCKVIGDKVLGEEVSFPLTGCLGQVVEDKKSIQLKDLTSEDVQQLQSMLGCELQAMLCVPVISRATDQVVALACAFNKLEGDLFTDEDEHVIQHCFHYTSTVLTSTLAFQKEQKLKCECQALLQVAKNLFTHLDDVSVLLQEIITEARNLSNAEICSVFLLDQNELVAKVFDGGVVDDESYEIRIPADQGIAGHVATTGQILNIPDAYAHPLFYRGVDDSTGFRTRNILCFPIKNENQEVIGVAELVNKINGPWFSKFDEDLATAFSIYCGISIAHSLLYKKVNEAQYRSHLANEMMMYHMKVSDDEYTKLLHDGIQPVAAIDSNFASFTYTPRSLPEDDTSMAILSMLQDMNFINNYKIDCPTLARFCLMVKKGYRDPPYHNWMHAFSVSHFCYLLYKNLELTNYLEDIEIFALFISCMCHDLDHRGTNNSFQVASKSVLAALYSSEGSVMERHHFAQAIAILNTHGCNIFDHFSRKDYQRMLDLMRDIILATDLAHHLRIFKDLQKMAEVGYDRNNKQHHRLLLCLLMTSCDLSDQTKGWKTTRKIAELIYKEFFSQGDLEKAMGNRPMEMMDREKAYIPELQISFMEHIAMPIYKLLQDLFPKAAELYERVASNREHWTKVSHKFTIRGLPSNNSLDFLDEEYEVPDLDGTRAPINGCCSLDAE

In the case of `Cn1ncc(-c2nn(C)c3ncnc(N4CCC4)c23)c1-c1ccc(C(F)(F)F)cc1` [PF-05085727], the “blocking effect on [11C]1 signal in autoradiography” value (PDE2A [1]) was “significantly reduced the radiotracer signal in PDE2A-rich regions”.
For `COc1ccc(Cc2nn3c([C@@H](CCCc4ccccc4)[C@@H](C)O)nc(C)c3c(=O)[nH]2)cc1OC` [BAY 60-7550], the “blocking effect on [11C]1 signal in autoradiography” value (PDE2A [1]) was “significantly reduced the radiotracer signal in PDE2A-rich regions”.
`Cc1nc(NC2(c3ccc(C(F)(F)F)cc3)CC2)c2cnn(C)c2n1` [compound 1, 1,6-Dimethyl-N-(1-(4-(trifluoromethyl)-phenyl)-cyclopropyl)-1H-pyrazolo[3,4-d]-pyrimidin-4-amine] showed a f u brain (Unbound brain fraction) of 7.2% and a logD [2] of 3.88.
In the case of `COc1ccc2nnc3c(C)nc(-c4cc(OCCCC[18F])ccc4F)n3c2n1` [[^18F]TA4], the pIC50 (PDE2A [3]; triazine scaffold tracers, ref Schröder et al.) is given as 8.14.
With `Cc1nc(NC2(c3ccc(C(F)(F)F)cc3)CC2)c2cnn([11CH3])c2n1` [[^11C]1] the small intestine uptake [4] was 11 ± 1.5 % ID/g, the “brain distribution in summed PET images” value ([5]; 3–20 min) was “homogeneous distribution” and the “SUVmax (brain uptake)” value ([5]; at 2 min postinjection) was 1.65. For the same compound, the “brain SUV” value ([5]; by 20 min) was “below 0.5”, the “% of unchanged form in brain” value ([6]; 10 min postinjection) was 97% and the “% of unchanged form in plasma” value ([6]; 10 min postinjection) was 54%. For the same compound, the “% of unchanged form in brain” value ([6]; 30 min postinjection) was 86% and the “% of unchanged form in plasma” value ([6]; 30 min postinjection) was 34%.
In the case of `Cc1nc(-c2cnn(C)c2-c2ccc(C(F)(F)F)cc2)c2c(N3CC([18F])C3)ncnn12` [[^18F]PF-05270430], the pIC50 (PDE2A [3]; literature PET radioligands) is listed as 9.30.
